Measured values taken from paper PMC9481151, “Discovery of new symmetrical and asymmetrical nitrile-containing 1,4-dihydropyridine derivatives as dual kinases and P-glycoprotein inhibitors: synthesis, in vitro assays, and in silico studies” (Journal of Enzyme Inhibition and Medicinal Chemistry, 2022).

Key:
[1] = test system: Escherichia coli; assay: Agar well diffusion method
[2] = test system: HOP-62; assay: NCI single dose (10 µM) SRB screen; format: cell-based, human; settings: non-small cell lung cancer, 48 h
[3] = test system: SK-MEL-5; assay: NCI single dose (10 µM) SRB screen; format: cell-based, human; settings: melanoma, 48 h
[4] = test system: HS578T; assay: NCI single dose (10 µM) SRB screen; format: cell-based, human; settings: breast cancer, 48 h
[5] = test system: TK-10; assay: NCI single dose (10 µM) SRB screen; format: cell-based, human; settings: renal cancer, 48 h
[6] = test system: HCT-15; assay: NCI single dose (10 µM) SRB screen; format: cell-based, human; settings: colon cancer, 48 h
[7] = test system: HCT-116; assay: NCI single dose (10 µM) SRB screen; format: cell-based, human; settings: colon cancer, 48 h
[8] = test system: HT29; assay: NCI single dose (10 µM) SRB screen; format: cell-based, human; settings: colon cancer, 48 h
[9] = test system: EKVX; assay: NCI single dose (10 µM) SRB screen; format: cell-based, human; settings: non-small cell lung cancer, 48 h
[10] = test system: DU-145; assay: NCI single dose (10 µM) SRB screen; format: cell-based, human; settings: prostate cancer, 48 h
[11] = test system: LOX IMVI; assay: NCI single dose (10 µM) SRB screen; format: cell-based, human; settings: melanoma, 48 h
[12] = test system: SK-OV-3; assay: NCI single dose (10 µM) SRB screen; format: cell-based, human; settings: ovarian cancer, 48 h
[13] = test system: NCI-H226; assay: NCI single dose (10 µM) SRB screen; format: cell-based, human; settings: non-small cell lung cancer, 48 h
[14] = test system: RPMI-8226; assay: NCI single dose (10 µM) SRB screen; format: cell-based, human; settings: leukaemia, 48 h
[15] = test system: U251; assay: NCI single dose (10 µM) SRB screen; format: cell-based, human; settings: CNS cancer, 48 h
[16] = test system: MDA-MB-231; assay: NCI single dose (10 µM) SRB screen; format: cell-based, human; settings: breast cancer, 48 h
[17] = test system: A549/ATCC; assay: NCI single dose (10 µM) SRB screen; format: cell-based, human; settings: non-small cell lung cancer, 48 h
[18] = test system: MCF7; assay: NCI single dose (10 µM) SRB screen; format: cell-based, human; settings: breast cancer, 48 h
[19] = test system: MDA-MB-435; assay: NCI single dose (10 µM) SRB screen; format: cell-based, human; settings: melanoma, 48 h
[20] = test system: NCI 60 cancer cell lines; assay: NCI single dose (10 µM) SRB screen, mean over panel; format: cell-based, human; settings: mean over 60 cell lines, 48 h
[21] = test system: KM12; assay: NCI single dose (10 µM) SRB screen; format: cell-based, human; settings: colon cancer, 48 h
[22] = test system: A498; assay: NCI single dose (10 µM) SRB screen; format: cell-based, human; settings: renal cancer, 48 h
[23] = test system: SW-620; assay: NCI single dose (10 µM) SRB screen; format: cell-based, human; settings: colon cancer, 48 h
[24] = test system: NCI-H23; assay: NCI single dose (10 µM) SRB screen; format: cell-based, human; settings: non-small cell lung cancer, 48 h
[25] = test system: NCI-H522; assay: NCI single dose (10 µM) SRB screen; format: cell-based, human; settings: non-small cell lung cancer, 48 h
[26] = test system: NCI/ADR-RES; assay: NCI single dose (10 µM) SRB screen; format: cell-based, human; settings: ovarian cancer, 48 h
[27] = test system: Bacillus subtilis; assay: Agar well diffusion method
[28] = test system: HCC-2998; assay: NCI single dose (10 µM) SRB screen; format: cell-based, human; settings: colon cancer, 48 h
[29] = test system: NCI-H322M; assay: NCI single dose (10 µM) SRB screen; format: cell-based; settings: non-small cell lung cancer, 48 h
[30] = test system: ACHN; assay: NCI single dose (10 µM) SRB screen; format: cell-based, human; settings: renal cancer, 48 h
[31] = test system: SNB-75; assay: NCI single dose (10 µM) SRB screen; format: cell-based, human; settings: CNS cancer, 48 h
[32] = test system: SR; assay: NCI single dose (10 µM) SRB screen; format: cell-based, human; settings: leukaemia, 48 h
[33] = test system: HL-60(TB); assay: NCI single dose (10 µM) SRB screen; format: cell-based, human; settings: leukaemia, 48 h
[34] = test system: CCRF-CEM; assay: NCI single dose (10 µM) SRB screen; format: cell-based, human; settings: leukaemia, 48 h
[35] = test system: Staphylococcus aureus; assay: Agar well diffusion method
[36] = test system: COLO 205; assay: NCI single dose (10 µM) SRB screen; format: cell-based, human; settings: colon cancer, 48 h
[37] = test system: PC-3; assay: NCI single dose (10 µM) SRB screen; format: cell-based, human; settings: prostate cancer, 48 h
[38] = test system: M14; assay: NCI single dose (10 µM) SRB screen; format: cell-based, human; settings: melanoma, 48 h
[39] = test system: UACC-62; assay: NCI single dose (10 µM) SRB screen; format: cell-based, human; settings: melanoma, 48 h
[40] = test system: MDA-MB-468; assay: NCI single dose (10 µM) SRB screen; format: cell-based, human; settings: breast cancer, 48 h
[41] = test system: UACC-257; assay: NCI single dose (10 µM) SRB screen; format: cell-based, human; settings: melanoma, 48 h
[42] = test system: Candida albicans; assay: Agar well diffusion method
[43] = test system: UO-31; assay: NCI single dose (10 µM) SRB screen; format: cell-based, human; settings: renal cancer, 48 h
[44] = test system: MOLT-4; assay: NCI single dose (10 µM) SRB screen; format: cell-based, human; settings: leukaemia, 48 h
[45] = test system: CAKI-1; assay: NCI single dose (10 µM) SRB screen; format: cell-based, human; settings: renal cancer, 48 h
[46] = test system: SF-268; assay: NCI single dose (10 µM) SRB screen; format: cell-based, human; settings: CNS cancer, 48 h
[47] = test system: SF-295; assay: NCI single dose (10 µM) SRB screen; format: cell-based, human; settings: CNS cancer, 48 h
[48] = test system: MALME-3M; assay: NCI single dose (10 µM) SRB screen; format: cell-based, human; settings: melanoma, 48 h
[49] = test system: SK-MEL-2; assay: NCI single dose (10 µM) SRB screen; format: cell-based, human; settings: melanoma, 48 h
[50] = test system: BT-549; assay: NCI single dose (10 µM) SRB screen; format: cell-based, human; settings: breast cancer, 48 h
[51] = test system: SNB-19; assay: NCI single dose (10 µM) SRB screen; format: cell-based, human; settings: CNS cancer, 48 h

Q: Which zone of inhibition at 1000 µg/mL ([1]; Escherichia coli, 24 h, read-out: Diameter of inhibition zone, E. coli) does the source give for `CCOC(=O)C1=C(C)NC(C)=C(C(=O)OCCOC)C1c1cccc(C#N)c1` (racemic) [Compound 2k, (±)-3-Ethyl 5-(2-methoxyethyl) 4-(3-cyanophenyl)-2,6-dimethyl-1,4-dihydropyridine-3,5-dicarboxylate] here?
A: Its zone of inhibition at 1000 µg/mL is 15 mm.

Q: And the “% activity index, E. coli” value ([1]; relative to ciprofloxacin)?
A: Its value is 57.7%.

Q: And the “GI% HOP-62” value [2]?
A: Its value is “– (Only GI% ≥ 10 are shown)”.

Q: What about the “GI% SK-MEL-5” value [3] of the same molecule?
A: Its value is “– (Only GI% ≥ 10 are shown)”.

Q: What about the “GI% HS578T” value [4] of the same molecule?
A: The value was “– (Only GI% ≥ 10 are shown)”.

Q: And the “GI% TK-10” value [5]?
A: Its value is “– (Only GI% ≥ 10 are shown)”.

Q: And the “GI% HCT-15” value [6]?
A: The value was “– (Only GI% ≥ 10 are shown)”.

Q: What about the “GI% HCT-116” value [7] of the same molecule?
A: The value was “– (Only GI% ≥ 10 are shown)”.

Q: What about the “GI% HT29” value [8] of the same molecule?
A: Its value is “– (Only GI% ≥ 10 are shown)”.

Q: What about the “GI% EKVX” value [9] of the same molecule?
A: The value was “– (Only GI% ≥ 10 are shown)”.

Q: What about the “GI% DU-145” value [10] of the same molecule?
A: Its value is “– (Only GI% ≥ 10 are shown)”.

Q: What about the “GI% LOX IMVI” value [11] of the same molecule?
A: The value was “– (Only GI% ≥ 10 are shown)”.

Q: What about the “GI% SK-OV-3” value [12] of the same molecule?
A: The value was “– (Only GI% ≥ 10 are shown)”.

Q: What about the “GI% NCI-H226” value [13] of the same molecule?
A: The value was “– (Only GI% ≥ 10 are shown)”.

Q: What about the “GI% RPMI-8226” value [14] of the same molecule?
A: The value was “– (Only GI% ≥ 10 are shown)”.

Q: What about the “GI% U251” value [15] of the same molecule?
A: The value was “– (Only GI% ≥ 10 are shown)”.

Q: What about the “GI% MDA-MB-231” value [16] of the same molecule?
A: The value was “– (Only GI% ≥ 10 are shown)”.

Q: What about the “GI% A549/ATCC” value [17] of the same molecule?
A: The value was “– (Only GI% ≥ 10 are shown)”.

Q: What about the “GI% MCF7” value [18] of the same molecule?
A: Its value is “– (Only GI% ≥ 10 are shown)”.

Q: What about the “GI% MDA-MB-435” value [19] of the same molecule?
A: The value was “– (Only GI% ≥ 10 are shown)”.

Q: And the “Mean GI%” value [20]?
A: The value was −1%.

Q: What about the “GI% KM12” value [21] of the same molecule?
A: Its value is “– (Only GI% ≥ 10 are shown)”.

Q: What about the “GI% A498” value [22] of the same molecule?
A: Its value is 21%.

Q: What about the “GI% SW-620” value [23] of the same molecule?
A: The value was “– (Only GI% ≥ 10 are shown)”.

Q: What about the “GI% NCI-H23” value [24] of the same molecule?
A: Its value is “– (Only GI% ≥ 10 are shown)”.

Q: And the “GI% NCI-H522” value [25]?
A: Its value is “– (Only GI% ≥ 10 are shown)”.

Q: What about the “GI% NCI/ADR-RES” value [26] of the same molecule?
A: Its value is “– (Only GI% ≥ 10 are shown)”.

Q: And the zone of inhibition at 1000 µg/mL ([27]; Bacillus subtilis, 24 h, read-out: Diameter of inhibition zone, B. subtilis)?
A: Its zone of inhibition at 1000 µg/mL is 13 mm.

Q: And the “% activity index, B. subtilis” value ([27]; relative to ciprofloxacin)?
A: Its value is 56.5%.

Q: And the “GI% HCC-2998” value [28]?
A: The value was “– (Only GI% ≥ 10 are shown)”.

Q: And the “GI% NCI-H322M” value [29]?
A: Its value is “– (Only GI% ≥ 10 are shown)”.

Q: And the “GI% ACHN” value [30]?
A: Its value is “– (Only GI% ≥ 10 are shown)”.

Q: What about the “GI% SNB-75” value [31] of the same molecule?
A: The value was “– (Only GI% ≥ 10 are shown)”.

Q: And the “GI% SR” value [32]?
A: The value was 13%.

Q: And the “GI% HL-60(TB)” value [33]?
A: Its value is 12%.

Q: And the “GI% CCRF-CEM” value [34]?
A: Its value is “– (Only GI% ≥ 10 are shown)”.

Q: What about the zone of inhibition at 1000 µg/mL ([35]; Staphylococcus aureus, 24 h, read-out: Diameter of inhibition zone, S. aureus) of the same molecule?
A: The zone of inhibition at 1000 µg/mL was 17 mm.

Q: What about the “% activity index, S. aureus” value ([35]; relative to ciprofloxacin) of the same molecule?
A: The value was 70.8%.

Q: And the “GI% COLO 205” value [36]?
A: Its value is “– (Only GI% ≥ 10 are shown)”.

Q: And the “GI% PC-3” value [37]?
A: Its value is “– (Only GI% ≥ 10 are shown)”.

Q: What about the “GI% M14” value [38] of the same molecule?
A: The value was “– (Only GI% ≥ 10 are shown)”.

Q: What about the “GI% UACC-62” value [39] of the same molecule?
A: The value was “– (Only GI% ≥ 10 are shown)”.

Q: And the “GI% MDA-MB-468” value [40]?
A: Its value is “– (Only GI% ≥ 10 are shown)”.

Q: What about the “GI% UACC-257” value [41] of the same molecule?
A: Its value is “– (Only GI% ≥ 10 are shown)”.

Q: What about the zone of inhibition at 1000 µg/mL ([42]; Candida albicans, 24 h, read-out: Diameter of inhibition zone, C. albicans) of the same molecule?
A: The zone of inhibition at 1000 µg/mL was 16 mm.

Q: And the “% activity index, C. albicans” value ([42]; relative to clotrimazole)?
A: The value was 59.2%.

Q: And the “GI% UO-31” value [43]?
A: The value was “– (Only GI% ≥ 10 are shown)”.

Q: And the “GI% MOLT-4” value [44]?
A: The value was “– (Only GI% ≥ 10 are shown)”.

Q: And the “GI% CAKI-1” value [45]?
A: The value was “– (Only GI% ≥ 10 are shown)”.

Q: What about the “GI% SF-268” value [46] of the same molecule?
A: The value was “– (Only GI% ≥ 10 are shown)”.

Q: What about the “GI% SF-295” value [47] of the same molecule?
A: Its value is “– (Only GI% ≥ 10 are shown)”.

Q: And the “GI% MALME-3M” value [48]?
A: Its value is “– (Only GI% ≥ 10 are shown)”.

Q: And the “GI% SK-MEL-2” value [49]?
A: The value was “– (Only GI% ≥ 10 are shown)”.

Q: And the “GI% BT-549” value [50]?
A: The value was “– (Only GI% ≥ 10 are shown)”.

Q: What about the “GI% SNB-19” value [51] of the same molecule?
A: Its value is “– (Only GI% ≥ 10 are shown)”.
